This is an account of results in ChEMBL document CHEMBL4190382, “Targeting lysine specific demethylase 4A (KDM4A) tandem TUDOR domain - A fragment based approach” (Bioorg Med Chem Lett, 2018).

Active and inactive are the calls of the source. The rule behind the calls is not given here.

Test [1] has as its target T1, Lysine-specific demethylase 4C (Homo sapiens, UniProt Q9H3R0).
T1 sequence (Q9H3R0 whole entry): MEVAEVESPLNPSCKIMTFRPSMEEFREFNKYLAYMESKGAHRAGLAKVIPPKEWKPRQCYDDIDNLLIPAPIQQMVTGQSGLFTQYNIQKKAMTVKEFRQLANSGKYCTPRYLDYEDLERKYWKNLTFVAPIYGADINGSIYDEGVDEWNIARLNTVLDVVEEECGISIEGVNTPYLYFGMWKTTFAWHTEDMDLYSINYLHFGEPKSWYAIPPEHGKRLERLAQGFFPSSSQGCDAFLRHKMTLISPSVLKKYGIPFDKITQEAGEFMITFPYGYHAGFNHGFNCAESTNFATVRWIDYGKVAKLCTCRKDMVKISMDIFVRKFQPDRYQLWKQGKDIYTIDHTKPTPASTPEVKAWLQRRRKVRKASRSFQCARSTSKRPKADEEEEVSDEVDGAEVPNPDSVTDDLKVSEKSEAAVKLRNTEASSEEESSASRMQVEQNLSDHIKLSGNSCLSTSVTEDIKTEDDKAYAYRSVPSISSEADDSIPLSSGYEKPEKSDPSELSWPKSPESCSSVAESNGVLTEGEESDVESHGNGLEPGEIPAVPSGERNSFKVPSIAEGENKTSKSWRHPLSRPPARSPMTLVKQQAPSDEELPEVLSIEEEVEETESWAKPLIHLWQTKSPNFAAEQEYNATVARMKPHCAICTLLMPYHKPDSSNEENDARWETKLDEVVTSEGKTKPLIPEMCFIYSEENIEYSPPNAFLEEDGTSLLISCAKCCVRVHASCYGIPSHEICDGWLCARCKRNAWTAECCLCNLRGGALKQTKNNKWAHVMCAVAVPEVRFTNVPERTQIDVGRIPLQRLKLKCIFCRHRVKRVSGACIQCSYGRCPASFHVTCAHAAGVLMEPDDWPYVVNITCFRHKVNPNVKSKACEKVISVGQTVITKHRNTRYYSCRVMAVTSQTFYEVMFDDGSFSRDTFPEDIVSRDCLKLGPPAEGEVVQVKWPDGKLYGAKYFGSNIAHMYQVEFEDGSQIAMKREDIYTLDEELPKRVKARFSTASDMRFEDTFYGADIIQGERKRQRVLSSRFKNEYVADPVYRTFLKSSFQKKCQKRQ
Put plainly: Binding affinity to 6His-tagged and human KDM4C tandem TUDOR domain (874 to 990 residues) expressed in Escherichia coli BL21(DE3)-T1R by ITC method.

Test [2] has as its target TP53-binding protein 1 (Homo sapiens, UniProt Q12888). Kind of test: Binding affinity to 6His-tagged and human 53BP1 tandem TUDOR domain (1488 to 1611 residues) expressed in Escherichia coli BL21(DE3)-T1R by ITC method.
The test system of test [3] is T2, Lysine-specific demethylase 4A (Homo sapiens), O75164 [Y973A].
T2 sequence (whole entry): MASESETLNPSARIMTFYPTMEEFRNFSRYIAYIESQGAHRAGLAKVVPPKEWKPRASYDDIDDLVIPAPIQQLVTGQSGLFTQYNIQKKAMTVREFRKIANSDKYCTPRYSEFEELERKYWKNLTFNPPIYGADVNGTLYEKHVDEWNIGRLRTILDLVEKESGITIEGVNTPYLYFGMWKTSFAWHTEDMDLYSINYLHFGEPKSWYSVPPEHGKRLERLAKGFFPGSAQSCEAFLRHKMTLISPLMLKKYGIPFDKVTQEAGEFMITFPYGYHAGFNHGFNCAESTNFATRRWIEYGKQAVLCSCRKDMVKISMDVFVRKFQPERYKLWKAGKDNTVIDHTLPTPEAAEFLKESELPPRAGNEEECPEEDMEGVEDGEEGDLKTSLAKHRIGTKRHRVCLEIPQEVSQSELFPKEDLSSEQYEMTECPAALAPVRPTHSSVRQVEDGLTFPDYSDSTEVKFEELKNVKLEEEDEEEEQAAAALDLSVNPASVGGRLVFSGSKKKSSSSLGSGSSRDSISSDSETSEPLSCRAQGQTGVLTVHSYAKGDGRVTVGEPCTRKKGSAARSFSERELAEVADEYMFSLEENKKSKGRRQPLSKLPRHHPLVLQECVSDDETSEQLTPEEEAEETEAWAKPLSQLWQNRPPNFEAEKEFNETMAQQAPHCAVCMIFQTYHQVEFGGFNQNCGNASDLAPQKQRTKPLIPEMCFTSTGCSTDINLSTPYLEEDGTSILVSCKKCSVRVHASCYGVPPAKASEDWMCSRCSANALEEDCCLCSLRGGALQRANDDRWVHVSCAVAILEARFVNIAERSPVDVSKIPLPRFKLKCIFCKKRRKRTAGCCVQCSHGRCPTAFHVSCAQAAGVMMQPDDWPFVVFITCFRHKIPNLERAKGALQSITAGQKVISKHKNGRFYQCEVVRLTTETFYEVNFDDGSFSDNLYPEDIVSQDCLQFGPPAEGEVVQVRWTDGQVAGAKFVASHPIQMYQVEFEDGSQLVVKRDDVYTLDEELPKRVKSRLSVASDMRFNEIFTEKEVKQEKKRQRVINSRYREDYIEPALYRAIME
Kind of test: Binding affinity to thrombin cleavable N-terminal 6His tagged and 13C-IVLM labeled human KDM4A tandem TUDOR domain (897 to 1011 residues) Y973A mutant expressed in Escherichia coli BL21(DE3)-T1R by ITC method.

Chain of TP53-binding protein 1 (Q12888 whole entry, the tested form may be a part): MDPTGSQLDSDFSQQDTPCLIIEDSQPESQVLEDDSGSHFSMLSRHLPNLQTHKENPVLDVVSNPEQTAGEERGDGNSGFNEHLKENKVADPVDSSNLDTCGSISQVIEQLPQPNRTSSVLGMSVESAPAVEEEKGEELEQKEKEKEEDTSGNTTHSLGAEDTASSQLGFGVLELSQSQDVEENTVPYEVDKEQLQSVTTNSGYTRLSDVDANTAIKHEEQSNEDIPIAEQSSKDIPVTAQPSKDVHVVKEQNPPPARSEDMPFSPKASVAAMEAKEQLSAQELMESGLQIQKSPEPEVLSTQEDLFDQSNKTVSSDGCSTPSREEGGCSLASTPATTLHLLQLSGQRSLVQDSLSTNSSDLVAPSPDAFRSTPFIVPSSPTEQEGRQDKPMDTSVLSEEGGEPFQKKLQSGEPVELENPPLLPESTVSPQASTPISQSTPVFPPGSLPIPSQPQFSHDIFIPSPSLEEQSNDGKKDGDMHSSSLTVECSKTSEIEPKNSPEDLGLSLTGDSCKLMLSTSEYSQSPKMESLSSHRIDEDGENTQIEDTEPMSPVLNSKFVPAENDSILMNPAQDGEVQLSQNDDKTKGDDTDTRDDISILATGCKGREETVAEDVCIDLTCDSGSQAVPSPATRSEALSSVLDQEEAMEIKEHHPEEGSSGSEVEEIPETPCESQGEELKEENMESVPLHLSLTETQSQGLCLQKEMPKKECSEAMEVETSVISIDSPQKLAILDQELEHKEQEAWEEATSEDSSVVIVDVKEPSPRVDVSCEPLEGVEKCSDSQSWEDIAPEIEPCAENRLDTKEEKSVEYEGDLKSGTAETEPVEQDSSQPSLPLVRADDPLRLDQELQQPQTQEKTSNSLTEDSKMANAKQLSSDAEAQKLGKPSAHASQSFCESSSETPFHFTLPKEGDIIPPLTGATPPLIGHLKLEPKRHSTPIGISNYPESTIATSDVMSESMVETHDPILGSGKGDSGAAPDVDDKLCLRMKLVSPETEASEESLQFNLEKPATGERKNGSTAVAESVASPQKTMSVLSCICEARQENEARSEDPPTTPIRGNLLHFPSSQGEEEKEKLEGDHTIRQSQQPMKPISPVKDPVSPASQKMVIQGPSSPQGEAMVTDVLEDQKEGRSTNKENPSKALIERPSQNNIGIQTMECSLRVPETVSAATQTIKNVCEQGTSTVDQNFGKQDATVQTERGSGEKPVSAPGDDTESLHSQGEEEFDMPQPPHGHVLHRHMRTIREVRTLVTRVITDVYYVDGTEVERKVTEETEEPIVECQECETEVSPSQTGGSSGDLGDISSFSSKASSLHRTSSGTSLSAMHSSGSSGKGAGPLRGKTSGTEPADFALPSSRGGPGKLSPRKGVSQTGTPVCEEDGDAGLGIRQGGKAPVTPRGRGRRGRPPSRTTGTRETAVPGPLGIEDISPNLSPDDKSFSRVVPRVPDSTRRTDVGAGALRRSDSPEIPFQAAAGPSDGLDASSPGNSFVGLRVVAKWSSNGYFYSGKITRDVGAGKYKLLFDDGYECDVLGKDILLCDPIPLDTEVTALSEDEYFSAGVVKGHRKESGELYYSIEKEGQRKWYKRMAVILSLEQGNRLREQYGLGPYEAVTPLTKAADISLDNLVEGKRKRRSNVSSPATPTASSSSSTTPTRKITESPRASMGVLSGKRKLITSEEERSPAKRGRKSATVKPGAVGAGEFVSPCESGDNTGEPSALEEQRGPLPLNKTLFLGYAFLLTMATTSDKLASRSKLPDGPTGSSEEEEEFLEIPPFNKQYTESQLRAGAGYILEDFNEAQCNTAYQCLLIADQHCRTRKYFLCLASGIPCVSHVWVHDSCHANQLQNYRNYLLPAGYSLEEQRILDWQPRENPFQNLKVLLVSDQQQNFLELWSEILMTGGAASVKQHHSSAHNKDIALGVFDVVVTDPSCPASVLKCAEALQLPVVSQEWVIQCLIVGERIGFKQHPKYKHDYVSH

Take `CN(C)C[C@H]1C2CCC(c3ccccc3)(C2)[C@H]1O` (stereo partly drawn): the Kd in test [1] was 129 µM; in test [2], “Not Active”. Besides, the result in test [3] was inactive.
